Active and inactive are the calls of the source. Non-standard residues stand in square brackets, D forms with d. Residues, ends and D or L forms follow the SMILES beside them. ξ: configuration not given here. *: point of attachment. X18 = COC1=CC(=O)N(C(=O)C(O*)C(C)C)C1Cc1ccccc1; ξNMe2Val = CC(C)C(C(=O)*)N(C)C; NMeV = CN[CH](C(=O)O)C(C)C
Key:
[1] = inhibitors of HIV Env-driven cell fusion, dose response, cherry-pick (AID 652057); type: functional, cell-based
[2] = CEM21 lymphoblast cell cytotoxicity, dose response, cytotoxicity control for viral fusion inhibitor project, CellTiter-Glo luminescence, cherry-picked (AID 652042); type: functional, cell-based;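 note: potency for signal decrease meaning cytotoxicity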
[3] = off-target signal loss in HeLa-CEM21 co-culture – HeLa F-luc CTL cells, cherry-picked, counter-screen for HIV-1 Env fusion inhibitor project, dose response (AID 652040); type: functional, cell-based;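 note: potency for signal decrease marking cytotoxic or nonspecific inhibition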
[4] = ZM109 Env clade C HIV-1 fusion inhibitors, dose response, HeLa effector, CEM target cells, luciferase, cherry-pick (AID 652058); type: functional, cell-based
[5] = inhibitors of clade B AD8 Env fusion, dose response, cell-based, cherry-pick (AID 652062); type: functional;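 note: luciferase signal from cell-cell fusion driven by HIV-1 clade B AD8 Env; potency is for inhibitors of fusion seen as a drop in luminescence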
[6] = target: T1, Polyadenylate-binding protein 1 (Homo sapiens, UniProt P11940); experiment: PABP1 MLLE–PAM2 binding inhibitor potency, dose response, biochemical, fluorescence polarization, FITC-PAM2 peptide (AID 602259); type: functional; conditions: read-out: IC50_Mean
[7] = target: T1, Polyadenylate-binding protein 1; experiment: PABP1 MLLE–PAM2 interaction inhibitors, dose response, miRNA deadenylation inhibitor project, biochemical, fluorescence polarization, Cy5-PAM2 peptide, secondary (AID 602260); type: functional; conditions: read-out: IC50_Mean
Vero = experiment: cells; type: functional, cell-based; conditions: Chlorocebus sabaeus
[8] = HEp-2 cell cytotoxicity, dose response, cytotoxicity control for RSV inhibitor project, HTS (AID 2410); type: functional; conditions: human respiratory syncytial virus
SN12K1 = experiment: cells; type: functional; conditions: Homo sapiens
P388/ADR = experiment: cells; type: functional; conditions: Mus musculus
P388 = experiment: cells; type: functional; conditions: Mus musculus
[9] = Shn3 3'UTR reporter inhibitors, dose response, cell-based, Clone20 osteoblasts, firefly luciferase, cherry-picked (AID 624132); type: functional;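 note: firefly luciferase luminescence from reporter carrying the Shn3 3'UTR in osteoblasts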
[10] = HepG2 cell cytotoxicity, dose response, cytotoxicity control for Shn3 inhibitor project, CellTiter-Glo, cherry-picked (AID 624134); type: functional, cell-based
[11] = control 3'UTR Renilla luciferase suppression, dose response, counter-screen for Shn3 inhibitor project, cell-based, Clone20-Shn3RL, cherry-picked (AID 624133); type: functional
Escherichia coli = experiment: microbe, parasite or virus in culture
[12] = target: T2, High affinity choline transporter 1 (Homo sapiens, UniProt Q9GZV3); experiment: CHT inhibitors, dose response, cell-based, 5-point CRC, membrane potential dye (AID 504840); type: functional
T2 sequence (Q9GZV3 whole entry): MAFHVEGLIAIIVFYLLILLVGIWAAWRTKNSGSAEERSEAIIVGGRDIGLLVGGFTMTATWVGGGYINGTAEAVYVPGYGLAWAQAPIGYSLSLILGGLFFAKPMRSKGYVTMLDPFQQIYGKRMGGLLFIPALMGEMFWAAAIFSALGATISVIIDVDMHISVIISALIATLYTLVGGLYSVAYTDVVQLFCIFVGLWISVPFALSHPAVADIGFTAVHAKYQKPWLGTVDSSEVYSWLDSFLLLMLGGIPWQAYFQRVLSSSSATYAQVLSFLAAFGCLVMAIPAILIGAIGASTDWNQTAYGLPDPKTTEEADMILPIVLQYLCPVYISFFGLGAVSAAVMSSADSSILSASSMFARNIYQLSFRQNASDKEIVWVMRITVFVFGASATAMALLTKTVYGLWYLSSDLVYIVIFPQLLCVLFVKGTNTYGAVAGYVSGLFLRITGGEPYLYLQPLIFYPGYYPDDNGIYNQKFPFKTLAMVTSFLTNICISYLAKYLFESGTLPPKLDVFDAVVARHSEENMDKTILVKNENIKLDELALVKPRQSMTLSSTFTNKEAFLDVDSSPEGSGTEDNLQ

[13] = MC4R antagonists, dose response, counter-screen for LGR2 antagonist project, cell-based, plate reader, cherry pick (AID 743444); type: functional;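 note: transfected HEK 293 cells stimulated with alpha-MSH peptide; potency of inhibitors of the alpha-MSH evoked signal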
[14] = LGR2 antagonists, dose response, cell-based, HEK293, CRE-luciferase reporter, cherry pick, set 2 (AID 743343); type: functional;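 note: transfected cells were stimulated with diluted bursicon conditioned medium after compound addition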
[15] = HepG2 cell cytotoxicity, dose response, cytotoxicity control, plate reader, cherry-pick, antagonist series (AID 743416); type: functional, cell-based
[16] = target: Glucose-6-phosphate 1-dehydrogenase (Homo sapiens, UniProt P11413); experiment: human G6PD enzyme inhibitors, dose response, selectivity assay for P. falciparum G6PD inhibitor project, biochemical, fluorescence (AID 504792); type: functional
Paired box protein Pax-8 = Paired box protein Pax-8 (Homo sapiens, UniProt Q06710); experiment: inhibitors of PAX8-driven TPO luciferase reporter, dose response, RMG-I cells, cherry-pick (AID 687027); type: functional, cell-based;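 note: luciferase reporter driven by Pax8 target thyroperoxidase promoter measured by SteadyGlo luminescence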
[17] = cytotoxicity in OVCAR8 ovarian cancer cells, dose response, PAX8 project, cell-based, plate reader, dry powder samples (AID 743197); type: functional; conditions: OVCAR-8

Glucose-6-phosphate 1-dehydrogenase, sequence (P11413 whole entry): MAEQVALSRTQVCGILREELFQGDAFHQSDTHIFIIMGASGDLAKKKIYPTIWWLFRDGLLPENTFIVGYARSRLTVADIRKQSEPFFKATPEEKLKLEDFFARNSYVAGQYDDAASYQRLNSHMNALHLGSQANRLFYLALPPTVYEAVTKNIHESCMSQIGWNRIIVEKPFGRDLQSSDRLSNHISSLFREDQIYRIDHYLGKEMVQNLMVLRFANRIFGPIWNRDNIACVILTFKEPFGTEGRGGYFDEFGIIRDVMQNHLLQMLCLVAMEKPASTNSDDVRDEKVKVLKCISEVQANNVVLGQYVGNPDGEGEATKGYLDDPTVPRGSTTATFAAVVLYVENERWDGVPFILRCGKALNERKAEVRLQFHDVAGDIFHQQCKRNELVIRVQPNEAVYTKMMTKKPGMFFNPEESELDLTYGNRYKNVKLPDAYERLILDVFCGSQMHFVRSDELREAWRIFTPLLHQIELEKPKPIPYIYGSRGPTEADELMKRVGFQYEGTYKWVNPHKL
T1 sequence (P11940 whole entry): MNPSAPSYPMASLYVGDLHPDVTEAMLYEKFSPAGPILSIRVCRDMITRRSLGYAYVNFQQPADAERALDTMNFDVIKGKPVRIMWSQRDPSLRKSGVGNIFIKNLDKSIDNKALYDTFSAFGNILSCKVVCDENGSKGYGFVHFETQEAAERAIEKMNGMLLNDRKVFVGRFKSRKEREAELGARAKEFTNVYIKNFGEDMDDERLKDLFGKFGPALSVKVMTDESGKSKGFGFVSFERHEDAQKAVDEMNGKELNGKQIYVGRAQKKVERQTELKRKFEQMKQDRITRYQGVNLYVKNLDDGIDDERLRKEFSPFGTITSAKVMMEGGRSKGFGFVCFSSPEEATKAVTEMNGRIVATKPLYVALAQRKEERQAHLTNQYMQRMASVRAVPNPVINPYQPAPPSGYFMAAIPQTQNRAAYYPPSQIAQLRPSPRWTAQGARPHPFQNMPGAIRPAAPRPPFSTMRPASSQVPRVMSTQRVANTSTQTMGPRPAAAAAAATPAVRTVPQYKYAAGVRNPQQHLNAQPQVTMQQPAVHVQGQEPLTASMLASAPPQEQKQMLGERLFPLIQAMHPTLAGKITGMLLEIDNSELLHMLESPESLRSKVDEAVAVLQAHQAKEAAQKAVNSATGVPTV
Paired box protein Pax-8, sequence (Q06710 whole entry): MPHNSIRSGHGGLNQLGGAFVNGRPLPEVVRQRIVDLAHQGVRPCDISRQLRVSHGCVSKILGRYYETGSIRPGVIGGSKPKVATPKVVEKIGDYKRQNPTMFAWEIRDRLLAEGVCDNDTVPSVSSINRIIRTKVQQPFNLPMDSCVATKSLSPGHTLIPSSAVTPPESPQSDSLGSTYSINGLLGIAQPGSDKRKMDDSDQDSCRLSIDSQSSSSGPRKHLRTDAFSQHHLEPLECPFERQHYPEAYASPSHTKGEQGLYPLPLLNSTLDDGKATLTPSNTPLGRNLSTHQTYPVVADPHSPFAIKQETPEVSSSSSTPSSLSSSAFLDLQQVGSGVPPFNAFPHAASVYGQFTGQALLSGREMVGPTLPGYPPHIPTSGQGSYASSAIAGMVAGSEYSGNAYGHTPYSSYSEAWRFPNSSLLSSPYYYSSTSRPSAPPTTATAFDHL

Nc1ccn(C2OC(CO)C(O)C2F)c(=O)n1 (centres undefined)
AC50 [1]: 16.3 µM (active)
AC50 [2]: 33.2 µM (active)
AC50 [3]: > 70 µM (inactive)
AC50 [4]: 6.52 µM (active)
AC50 [5]: 2.98 µM (active)

N=C(N)NC(=S)Nc1ccc(Cl)cc1
IC50 [6]: > 66 µM (inactive)
IC50 [7]: > 66 µM (inactive)

CC(=O)Nc1nnc(SCC(=O)c2ccc3c(c2)Cc2ccccc2-3)s1
IC50 (Vero): 10.9 µM (active)
IC50 (cells): 36 µM (active)
CC50 [8]: 45.6 µM (active)

COC(=O)C1=C(C)N(Cc2ccccc2)C(=O)N[C@H]1c1ccc(Br)cc1
IC50 (cells): 4.43 µM (active)

CCOC1=C2[C@H](c3ccccc3)N(S(=O)(=O)c3ccc(C)cc3)[C@H](C(C)C)[C@H]2C(C#N)(C#N)C(C#N)(C#N)C1
AC50 [1]: 0.734 µM (active)
AC50 [2]: 6.07 µM (active)
AC50 [3]: 1.7 µM (active)
AC50 [4]: 2.05 µM (active)
AC50 [5]: 3.08 µM (active)

CC1C(=O)OC2CC[N+]3(CC(=O)c4ccc(Br)cc4)CC=C(COC(=O)C(C)(O)C1(C)O)C23 (centres undefined)
GI50 (SN12K1): > 375 µM (inactive)
GI50 (P388/ADR): > 375 µM (inactive)
GI50 (P388): > 174 µM (inactive)

COc1cccc(CN(C)C(=O)c2cccc(S(=O)(=O)N3CCN(c4ccccc4)CC3)c2)c1
AC50 [9]: 64.1 µM (active)
AC50 [10]: > 70 µM (inactive)
AC50 [11]: 12.2 µM (active)

CCNC(=O)c1ccc(NS(=O)(=O)c2ccccc2)cc1
AC50 (Escherichia coli): 27.4 µM (active)

O=C(NC1CCCCC1)C(c1ccc2ncccc2c1)N(Cc1ccc2c(c1)OCO2)C(=O)c1cccs1 (centres undefined)
IC50 [12]: 16.5 µM (active)

CCC(=O)Nc1cc2nn(-c3ccc(OC)cc3)nc2cc1C
AC50 [13]: 2.52 µM (active)
AC50 [14]: 3.64 µM (active)
AC50 [15]: > 52 µM (inactive)

COC(=O)CCC(=O)OC1(C)C(=O)C2=CN(c3ccc(OC)cc3)C(c3ccc(OC)cc3)=CC2=C(Br)C1=O (centres undefined)
IC50 [16]: 30.1 µM (inactive)

Cc1ccc(C(=O)N/C(=C/c2ccco2)C(=O)Nc2cccc(C)c2)cc1
IC50 [12]: 13.7 µM (active)

COC1=CC(=O)N(C(=O)C(OC(=O)C2CCCN2C(=O)C2CCCN2C(=O)C(C(C)C)N(C)C(=O)C(NC(=O)C(C(C)C)N(C)C)C(C)C)C(C)C)C1Cc1ccccc1 (centres undefined) (ξNMe2Val-V[NMeV]PP-X18; configuration not given here)
GI50 (SN12K1): 0.0004 µM (active)
GI50 (P388/ADR): 0.00748 µM (active)
GI50 (P388): 0.0004 µM (active)

CCCNC(=O)Nc1ccc2c(c1)OC[C@H](C)N(Cc1ccc(-c3ccccn3)cc1)C[C@@H](C)[C@@H](OC)CN(C)C2=O
AC50 (Paired box protein Pax-8): 32.9 µM (active)
AC50 [17]: > 70 µM (inactive)

Nc1nc(=O)[nH][nH]1
GI50 (SN12K1): > 100 µM (inactive)
GI50 (P388/ADR): > 100 µM (inactive)
GI50 (P388): > 100 µM (inactive)

CC(C)(C)C(=O)Nc1sc(-c2ccccc2)cc1C(=O)O
IC50 (Vero): 24.1 µM (active)
IC50 (cells): 14.3 µM (active)
CC50 [8]: 17.9 µM (active)

Cc1ccc(-c2nn(-c3ccccc3)cc2C2CC(c3cccs3)=NN2C(=O)CCCC(=O)O)cc1 (centres undefined)
IC50 (cells): 36.9 µM (active)
CC50 [8]: > 50 µM (active)

Cc1ccc(NC(=O)c2cc(C)n(-c3ccccc3)c2C)cc1
IC50 [16]: > 80 µM (inactive)
CC50 [8]: 16.9 µM (active)

— ChEMBL document CHEMBL1201862, “PubChem BioAssay data set” (2004)
